# How the values were obtained:
# human erythrocytes = assay: Human blood hemolysis; type: cell-based
# E. aerogenes ATCC 13048 = assay: MIC assay; type: cell-based, Enterobacter aerogenes; settings: Klebsiella aerogenes, ATCC13048; E. aerogenes ATCC 13048; read-out: Minimum inhibitory concentration
# From the text: (§1) Bacterial strains, growth conditions, and persister isolation. Methicillin-resistant S. aureus strains, MW2 BAA-1707, ATCC 33591, and JE2, methicillin-susceptible S. aureus strains, NCTC 8325, Newman, and ATCC 29213, vancomycin-resistant S. aureus strain, VRS1, Enterococcus faecium E007, vancomycin-resistant E. faecium strains, C68,^7 WB312, and WC196, Klebsiella pneumoniae WGLW2 (BEI Resources, Manassas, Va., USA), Acinetobacter baumannii ATCC 17978, Pseudomonas aeruginosa PA14, and Enterobacter aerogenes ATCC 13048 were used to test antimicrobial activity (Table 1). S. aureus strains were grown in tryptic soy broth (TSB) (BD, Franklin Lakes, N.J., USA), and E. faecium was grown in brain-heart infusion (BHI) broth (BD, Franklin Lakes, N.J., USA) at 37° C. K. pneumoniae, A. baumannii, P. aeruginosa, and E. aerogenes were grown in Luria Bertani (LB) broth (BD, Franklin Lakes, N.J., USA) at 37° C.
# (§2) Minimal inhibitory concentration (MIC) assay. The MICS of antibiotics were determined by the standard micro-dilution method recommended by the Clinical and Laboratory Standards Institute. MIC assays were conducted in biological triplicate.
# [1] = test system: MRSA MW2 persisters (stationary phase); assay: Persister killing assay; type: cell-based, S. aureus
# Protocol: Persister killing assay. […] Persister cells of MRSA MW2 were prepared by growing cultures overnight to stationary phase at 37° C. at 200 rpm and washing 3 times with PBS. 1 mL of ˜2×10^8 CFU/mL MRSA persisters was added to 1 mL of PBS containing 2-fold of the desired concentration of antibiotics in a 96-well assay block (Corning Costar 3960). The assay block was incubated at 37° C., with shaking at 200 rpm. At specific times, […] were removed, washed once with PBS, serially diluted and spot-plated on TSA plates. Colonies were counted to enumerate the number of live cells after overnight incubation at 37° C. These experiments were conducted in biological triplicate.
# S. aureus Newman = assay: MIC assay; type: cell-based; settings: Staphylococcus aureus; S. aureus Newman; read-out: Minimum inhibitory concentration
# From the text: as §1, §2
# S. aureus ATCC 33591 = assay: MIC assay; type: cell-based; settings: Staphylococcus aureus, ATCC33591; S. aureus ATCC 33591; read-out: Minimum inhibitory concentration
# From the text: as §1, §2
# S. aureus NCTC 8325 = assay: MIC assay; type: cell-based; settings: Staphylococcus aureus, NCTC8325; S. aureus NCTC 8325; read-out: Minimum inhibitory concentration
# From the text: as §1, §2
# S. aureus VRS1 = assay: MIC assay; type: cell-based; settings: Staphylococcus aureus; S. aureus VRS1; read-out: Minimum inhibitory concentration
# From the text: as §1, §2
# S. aureus ATCC 29213 = assay: MIC assay; type: cell-based; settings: Staphylococcus aureus, ATCC29213; S. aureus ATCC 29213; read-out: Minimum inhibitory concentration
# From the text: as §1, §2
# S. aureus JE2 = assay: MIC assay; type: cell-based; settings: Staphylococcus aureus; S. aureus JE2; read-out: Minimum inhibitory concentration
# From the text: as §1, §2
# [2] = test system: MRSA-infected C. elegans glp-4(bn2);sek-1(km4); assay: C. elegans-MRSA liquid killing assay; type: in vivo
# Protocol: C. elegans-MRSA liquid killing assay. The C. elegans-MRSA infection assay was conducted as described in a previous study. Briefly, a black, clear-bottom 384-well plate (Corning no. 3712) was filled with 20 μL M9 buffer including the desired concentrations of nTZDpa, 1% DMSO (negative control), or 10 μg/mL vancomycin (positive control). After adding 15 young adult C. elegans glp-4(bn2);sek-1(km4) animals to the wells using a COPAS large particle sorter (Union Biometrica, Mass., USA), 35 μL of MRSA MW2 suspension was added (OD600 0.08). The assay plate was sealed with a gas-permeable membrane (Breathe-Easy, Diversified Biotech, Dedham, Mass., USA), and then incubated in a humidified chamber at 25° C. for 5 days. After washing the plate 8-times with M9 buffer using a microplate washer (BioTek EL×405, BioTek, Vt., USA), worms were stained with 0.7 μM SYTOX Orange. To evaluate worm survivability, the worms were imaged using an Image Xpress Micro automated microscope (Molecular Devices), capturing both transmitted light and TRITC (535 nm excitation, 610 nm emission) fluorescent images with a 2× objective. Only dead worms stain with SYTOX Orange. The assay was conducted in biological triplicate.
structure (smiles),measurement,setting,value
O=C(O)c1c(Sc2ccccc2)c2cc(Cl)ccc2n1Cc1ccc(Cl)cc1 [nTZDpa],hemolysis of human erythrocytes,human erythrocytes; 32 μg/ml,< 25%
same,toxicity to human erythrocytes,human erythrocytes; at or below 16 μg/mL,did not show significant toxicity
same,HC50: median hemolytic concentration,human erythrocytes; human erythrocytes,47 µg/mL
same,MIC,E. aerogenes ATCC 13048,> 64 µg/mL
same,persister killing,[1]; 8 μg/ml nTZDpa and 80 μg/ml gentamicin,3 logs
same,time to eradicate 100% of persisters,[1]; 16 μg/ml nTZDpa and 10 μg/ml gentamicin,≤ 3 h
same,killing of MRSA persisters in combination,[1]; 16 μg/ml nTZDpa combined with 10× MIC of other aminoglycosides,synergistic killing of MRSA persisters
same,reduction of MRSA persisters,[1]; 32 μg/mL,~2 log
same,time to complete eradication of persisters,"[1]; 64 μg/mL, ~5×10^7 CFU/mL",≤ 2 h
same,MIC,S. aureus Newman,4 µg/mL
same,MIC,S. aureus ATCC 33591,4 µg/mL
same,MIC,S. aureus NCTC 8325,4 µg/mL
same,MIC,S. aureus VRS1,4 µg/mL
same,MIC,S. aureus ATCC 29213,4 µg/mL
same,MIC,S. aureus JE2,4 µg/mL
same,C. elegans rescued from MRSA-mediated lethality,[2]; 2 μg/ml to 16 μg/ml,~90%
same,EC50,"[2]; Caenorhabditis elegans, 120 h, read-out: EC50 (median effective concentration), C. elegans survival",~0.6 µg/mL
same,EC50 relative to EC50 of vancomycin,[2]; fold higher,2 fold

# Source: patent US11690824B2, “Antibacterial compounds” (THE GENERAL HOSPITAL CORPORATION, priority 2018, dated 2023)
